Patent US12479834B2, “Phenol compound or salt thereof” (TAIHO PHARMACEUTICAL CO., LTD., priority 2019, dated 2025)

Tests used:
G12C K-Ras4B (1-169) = biological target: T1, G12C K-Ras4B (1-169) (Homo sapiens, UniProt P01116, G12C); assay: Binding to KRAS G12C mutant, compound binding rate by LC-MS; conditions: final compound concentration 2 μM, 1 μM protein, 2 hours at 25° C.
T1 construct: G12C K-Ras4B (1-169) protein, which was a KRAS G12C mutant; His tag (N, cleaved yes); made in house; host or cells: E. coli BL21 (DE3)
Procedure, shortened: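 Covalent labelling at 2 μM final compound on a mix of 1 μM each wild-type and G12C K-Ras4B (1-169) (E. coli-expressed, tag removed) in 1×TBS, 0.1 mM TCEP, 2 h at 25° C., quenched with formic acid. Intact-protein ESI Q-TOF LC-MS; binding rate from adduct vs unbound protein signal, graded A–E in 20% bands.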

KRAS G12C mutant = biological target: T2, KRAS G12C mutant (Homo sapiens, UniProt P01116, G12C); assay: Inhibition of SOS1-mediated nucleotide (GDP-GTP) exchange reaction of KRAS G12C mutant, BODIPY FL GDP fluorescence; type: biochemical; conditions: preincubated 25° C. 4 hours with 25 nM KRAS G12C bound with BODIPY FL GDP; SOS1 100 nM, GppNHp 1 μM, 30 minutes
T2 construct: 50 μM G12C K-Ras4B (1-169) protein and 1 mM BODIPY® FL GDP; His tag (N, cleaved yes); made in house; host or cells: E. coli BL21 (DE3)
Procedure, shortened: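 KRAS G12C (1-169) loaded with BODIPY FL GDP (25 nM) was preincubated with compound (5% DMSO) for 4 h at 25 °C. Exchange then ran 30 min with SOS1 (564-1049, 100 nM) and 1 µM GppNHp. IC50 came from the 485/520 nm fluorescence change, normalized to DMSO and no-GppNHp controls.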

NCI-H358 cells = assay: Growth inhibition of KRAS-G12C mutant cell line NCI-H358 (CellTiter-Glo 2.0); type: cell-based; conditions: Homo sapiens, 72 h; NCI-H358, 3-day culture with compound
Protocol: KRAS-G12C mutant human lung cancer cell line NCI-H358 cells (ATCC, Cat #: CRL-5807) were suspended in RPMI1640 medium (manufactured by Fujifilm Wako Pure Chemical Corp.) containing 10% fetal bovine serum. The cell suspension was seeded at 500 cells/well into the wells of a 384-well flat-bottom microplate and cultured at 37° C. for 1 day in an incubator containing 5% CO2. The compound of the present invention was dissolved in DMSO and diluted with DMSO such that the concentration of the test compound was 500 times the final concentration. The solution of the test compound in DMSO was diluted with the medium used for suspending the cells, and the resultant was added to each well of the cell culture plate such that the final concentration of DMSO was 0.2%, followed by culture at 37° C. for another 3 days in an incubator containing 5% CO2.
Growth inhibition rate (%)=(C−T)/(C)×100 • T: the emission intensity in a well supplemented with the test compound. • C: the emission intensity in a well not supplemented with the test compound.

C=CC(=O)N1CC(NC(=O)c2cnc(CNc3cc(C(C)(C)C)c(Cl)cc3O)n2CCN(C)C)C1 [Example 38, N-(1-Acryloylazetidin-3-yl)-2-(((5-(tert-butyl)-4-chloro-2-hydroxyphenyl)amino)methyl)-1-(2-(dimethylamino)ethyl)-1H-imidazole-5-carboxamide] was tested, and the “binding rate for G12C K-Ras4B (1-169)” value (G12C K-Ras4B (1-169)) was “A (80% or more)”, the IC50 (KRAS G12C mutant) was 9 nM and the IC50 (NCI-H358 cells) was 708 nM.

With C=CC(=O)N1CC(NC(=O)c2c(C)nc(CNc3cc(C(C)(C)C)c(C)cc3O)n2C(C)C)C1 [Example 78, N-(1-Acryloylazetidin-3-yl)-2-(((5-(tert-butyl)-2-hydroxy-4-methylphenyl)amino)methyl)-1-isopropyl-4-methyl-1H-imidazole-5-carboxamide] the “binding rate for G12C K-Ras4B (1-169)” value (G12C K-Ras4B (1-169)) was “A (80% or more)”, the IC50 (KRAS G12C mutant) was 50 nM and the IC50 (NCI-H358 cells) was 993 nM.

C=CC(=O)N1CC(NC(=O)c2c(C)nc(CNc3cc(C(C)(C)C)c(Cl)cc3O)n2C(C)C)C1 [Example 42, N-(1-Acryloylazetidin-3-yl)-2-(((5-(tert-butyl)-4-chloro-2-hydroxyphenyl)amino)methyl)-1-isopropyl-4-methyl-1H-imidazole-5-carboxamide] was tested, and the “binding rate for G12C K-Ras4B (1-169)” value (G12C K-Ras4B (1-169)) was “A (80% or more)”, the IC50 (KRAS G12C mutant) was 11 nM and the IC50 (NCI-H358 cells) was 301 nM.

C=CC(=O)N1CC(NC(=O)c2cnc(CNc3cc(C(C)(C)C)c(Cl)cc3O)n2C)C1 [Example 18, N-(1-Acryloylazetidin-3-yl)-2-(((5-(tert-butyl)-4-chloro-2-hydroxyphenyl)amino)methyl)-1-methyl-1H-imidazole-5-carboxamide] was tested, and the “binding rate for G12C K-Ras4B (1-169)” value (G12C K-Ras4B (1-169)) was “A (80% or more)”, the IC50 (KRAS G12C mutant) was 11 nM and the IC50 (NCI-H358 cells) was 562 nM.

For CN(C)C/C=C/C(=O)N1CC(NC(=O)c2cnc(CNc3cc(C(C)(C)C)c(Cl)cc3O)s2)C1 [Example 86, (E)-2-(((5-(tert-Butyl)-4-chloro-2-hydroxyphenyl)amino)methyl)-N-(1-(4-(dimethylamino)but-2-enoyl)azetidin-3-yl)thiazole-5-carboxamide], the “binding rate for G12C K-Ras4B (1-169)” value (G12C K-Ras4B (1-169)) was “B (60% or more and less than 80%)” and the IC50 (KRAS G12C mutant) was 701 nM.

C=CC(=O)N1CC(NC(=O)c2cnc(CNc3cc(C(C)(C)C)c(Cl)c(F)c3O)n2C)C1 [Example 73, N-(1-Acryloylazetidin-3-yl)-2-(((5-(tert-butyl)-4-chloro-3-fluoro-2-hydroxyphenyl)amino)methyl)-1-methyl-1H-imidazole-5-carboxamide] was tested, and the “binding rate for G12C K-Ras4B (1-169)” value (G12C K-Ras4B (1-169)) was “B (60% or more and less than 80%)” and the IC50 (KRAS G12C mutant) was 69 nM.

With C=CC(=O)N1CC(NC(=O)c2cnc(CNc3cc(C(C)(C)C)c(Cl)cc3O)s2)C1 [Example 9, N-(1-Acryloylazetidin-3-yl)-2-(((5-(tert-butyl)-4-chloro-2-hydroxyphenyl)amino)methyl)thiazole-5-carboxamide] the “binding rate for G12C K-Ras4B (1-169)” value (G12C K-Ras4B (1-169)) was “A (80% or more)” and the IC50 (KRAS G12C mutant) was 39 nM.

In the case of C=CC(=O)N1CC(NC(=O)c2cnc(CNc3cc(C4CC4(F)F)c(Cl)cc3O)n2C)C1 (stereo not shown) [Example 55, N-(1-Acryloylazetidin-3-yl)-2-(((4-chloro-5-(2,2-difluorocyclopropyl)-2-hydroxyphenyl)amino)methyl)-1-methyl-1H-imidazole-5-carboxamide], the “binding rate for G12C K-Ras4B (1-169)” value (G12C K-Ras4B (1-169)) is reported as “C (40% or more and less than 60%)” and the IC50 (KRAS G12C mutant) is reported as 122 nM.

With C=CC(=O)N1CC(N(C)C(=O)c2ccc(CNc3cc(OC(F)(F)F)c(Cl)cc3O)o2)C1 [Example 49, N-(1-Acryloylazetidin-3-yl)-5-(((4-chloro-2-hydroxy-5-(trifluoromethoxy)phenyl)amino)methyl)-N-methylfuran-2-carboxamide] the “binding rate for G12C K-Ras4B (1-169)” value (G12C K-Ras4B (1-169)) was “E (less than 20%)” and the IC50 (KRAS G12C mutant) was 1140 nM.

With C=CC(=O)N1CC[C@@H](N(C)C(=O)c2ccc(CNc3cc(C(C)(C)C)c(Cl)cc3O)o2)C1 [Example 6, (R)—N-(1-Acryloylpyrrolidin-3-yl)-5-(((5-(tert-butyl)-4-chloro-2-hydroxyphenyl)amino)methyl)-N-methylfuran-2-carboxamide] the “binding rate for G12C K-Ras4B (1-169)” value (G12C K-Ras4B (1-169)) was “D (20% or more and less than 40%)” and the IC50 (KRAS G12C mutant) was 164 nM.

With C=CC(=O)N1CC(NC(=O)c2cnc(CNc3cc(C(C)(C)C)c(Cl)cc3O)n2CC)C1 [Example 36, N-(1-Acryloylazetidin-3-yl)-2-(((5-(tert-butyl)-4-chloro-2-hydroxyphenyl)amino)methyl)-1-ethyl-1H-imidazole-5-carboxamide] the “binding rate for G12C K-Ras4B (1-169)” value (G12C K-Ras4B (1-169)) was “A (80% or more)” and the IC50 (KRAS G12C mutant) was 15 nM.

For C=CC(=O)N1CC(NC(=O)c2cnc(CNc3cc(CC)c(Cl)cc3O)n2C)C1 [Example 61, N-(1-Acryloylazetidin-3-yl)-2-(((4-chloro-5-ethyl-2-hydroxyphenyl)amino)methyl)-1-methyl-1H-imidazole-5-carboxamide], the “binding rate for G12C K-Ras4B (1-169)” value (G12C K-Ras4B (1-169)) was “B (60% or more and less than 80%)” and the IC50 (KRAS G12C mutant) was 144 nM.

C=CC(=O)N1CC(NC(=O)c2coc(CNc3cc(C(C)(C)C)c(Cl)cc3O)n2)C1 [Example 13, N-(1-Acryloylazetidin-3-yl)-2-(((5-(tert-butyl)-4-chloro-2-hydroxyphenyl)amino)methyl)oxazole-4-carboxamide] was tested, and the “binding rate for G12C K-Ras4B (1-169)” value (G12C K-Ras4B (1-169)) was “A (80% or more)” and the IC50 (KRAS G12C mutant) was 735 nM.

For C=CC(=O)N1CC(NC(=O)c2cnc(CNc3cc(C(C)(C)C)c(CC)cc3O)n2C)C1 [Example 70, N-(1-Acryloylazetidin-3-yl)-2-(((5-(tert-butyl)-4-ethyl-2-hydroxyphenyl)amino)methyl)-1-methyl-1H-imidazole-5-carboxamide], the “binding rate for G12C K-Ras4B (1-169)” value (G12C K-Ras4B (1-169)) was “B (60% or more and less than 80%)” and the IC50 (KRAS G12C mutant) was 84 nM.

In the case of C=CC(=O)N1CC(NC(=O)c2cnc(CNc3cc(C(C)(C)C)c(Cl)cc3O)o2)C1 [Example 11, N-(1-Acryloylazetidin-3-yl)-2-(((5-(tert-butyl)-4-chloro-2-hydroxyphenyl)amino)methyl)oxazole-5-carboxamide], the “binding rate for G12C K-Ras4B (1-169)” value (G12C K-Ras4B (1-169)) is reported as “B (60% or more and less than 80%)” and the IC50 (KRAS G12C mutant) is reported as 123 nM.

With C=CC(=O)N1CC(NC(=O)c2ccc(CNc3cc(C(F)(F)F)c(Cl)cc3O)o2)C1 [Example 50, N-(1-Acryloylazetidin-3-yl)-5-(((4-chloro-2-hydroxy-5-(trifluoromethyl)phenyl)amino)methyl)furan-2-carboxamide] the “binding rate for G12C K-Ras4B (1-169)” value (G12C K-Ras4B (1-169)) was “D (20% or more and less than 40%)” and the IC50 (KRAS G12C mutant) was 3140 nM.

Cc1nc(CNc2cc(C(C)(C)C)c(Cl)cc2O)sc1C(=O)NC1CN(C(=O)/C=C/CN(C)C)C1 [Example 88, (E)-2-(((5-(tert-Butyl)-4-chloro-2-hydroxyphenyl)amino)methyl)-N-(1-(4-(dimethylamino)but-2-enoyl)azetidin-3-yl)-4-methylthiazole-5-carboxamide] was tested, and the “binding rate for G12C K-Ras4B (1-169)” value (G12C K-Ras4B (1-169)) was “C (40% or more and less than 60%)” and the IC50 (KRAS G12C mutant) was 109 nM.

For C=CC(=O)N1CC(NC(=O)c2cnc(CNc3cc([Si](C)(C)C)c(Cl)cc3O)n2C)C1 [Example 62, N-(1-Acryloylazetidin-3-yl)-2-(((4-chloro-2-hydroxy-5-(trimethylsilyl)phenyl)amino)methyl)-1-methyl-1H-imidazole-5-carboxamide], the “binding rate for G12C K-Ras4B (1-169)” value (G12C K-Ras4B (1-169)) was “A (80% or more)” and the IC50 (KRAS G12C mutant) was 11 nM.

CN(C)C/C=C/C(=O)N1CC(NC(=O)c2cnc(CNc3cc(C(C)(C)C)c(Cl)cc3O)n2C)C1 [Example 89, (E)-2-(((5-(tert-Butyl)-4-chloro-2-hydroxyphenyl)amino)methyl)-N-(1-(4-(dimethylamino)but-2-enoyl)azetidin-3-yl)-1-methyl-1H-imidazole-5-carboxamide] was tested, and the “binding rate for G12C K-Ras4B (1-169)” value (G12C K-Ras4B (1-169)) was “A (80% or more)” and the IC50 (KRAS G12C mutant) was 61 nM.

C=CC(=O)N1CC(NC(=O)c2cc(CNc3cc(C(C)(C)C)c(Cl)cc3O)ccn2)C1 [Example 16, N-(1-Acryloylazetidin-3-yl)-4-(((5-(tert-butyl)-4-chloro-2-hydroxyphenyl)amino)methyl)picolinamide] was tested, and the “binding rate for G12C K-Ras4B (1-169)” value (G12C K-Ras4B (1-169)) was “A (80% or more)” and the IC50 (KRAS G12C mutant) was 3010 nM.

C=CC(=O)N1CC(NC(=O)c2cnc(CNc3cc(C(C)C)c(Cl)cc3O)n2C)C1 [Example 60, N-(1-Acryloylazetidin-3-yl)-2-(((4-chloro-2-hydroxy-5-isopropylphenyl)amino)methyl)-1-methyl-1H-imidazole-5-carboxamide] was tested, and the “binding rate for G12C K-Ras4B (1-169)” value (G12C K-Ras4B (1-169)) was “A (80% or more)” and the IC50 (KRAS G12C mutant) was 37 nM.
